Converted amounts (≈) assume the structure as drawn. “And” between values parts separate entries of the source, which are not always exact repeats. Equal entries are not always repeated.
How the values were obtained:
α-amylase = details: cited from earlier work
α-glucosidase = details: cited from earlier work
INS-1 cells = test system: INS-1 cells; set-up: method as in PMID 10918947; details: 10 µg/mL, in the presence of 5.6 mmol/L glucose ref 36; cited from earlier work
[1] = MTT cytotoxicity assay against WI-38 cells; assay type: cell-based, human; details: human, WI-38 lung fibroblast cells
Method: (§1) Based on the promising dual inhibitory activity of this class of compounds, we next evaluated the cytotoxicity of compounds 5a and 7a against human lung fibroblast cell line WI-38 in order to gain insights into the toxicity of this class of compounds utilizing the MTT assay. In this regard, lung fibroblast cells were cultured and treated with compounds 5a and 7a for 48 h at different concentrations (1000, 250, 63, 16, and 4 µg/mL). After the cells were washed, they were treated with MTT solution and the absorption was assessed using an ELISA reader at 570 nm. As a pharmacological reference drug, Celecoxib, a well-known anti-inflammatory agent, was utilized.
(§2) The cytotoxicity of compounds 5a and 7a was assessed toward the human lung fibroblast WI-38 cell line (Sigma-Aldrich, St. Louis, MO, USA, product number 90020107) using MTT assay. The MTT test assay was performed in accordance with the previously stated procedure. MTT (3-(4,5-dimethylthiazol-2-yl)-2,5-diphenyl tetrazolium bromide; Sigma catalog no. M2128) was dissolved in PBS at 5 mg/mL and processed to eliminate the insoluble residues. Briefly, cells (10^5 cells/well) were treated for 48 h at 37 °C with compounds 5a and 7a at varied doses (1000, 250, 63, 16, and 4 µg/mL, DMSO stock solutions) in a 5% CO2 atmosphere. In our assessment, celecoxib, an inhibitor of cyclooxygenase 2, was employed as a standard reference drug. Following cell washing, MTT solution (180 µL/well) was applied to the cells and incubated at 37 °C for 4 h with shaking, and the absorbance was measured using an ELISA reader at 570 nm.

[2] = test system: human lung fibroblast WI-38 cell line; test: MTT cytotoxicity assay against WI-38 cells; assay type: cell-based; details: MTT, 48 h
Method: as §1, §2

[3] = ROS-generation assay (H2O2 generated with DTT, HRP-phenol red, 610 nm); details: 50 µM compound, incubated with DTT; control 90.74±5.54
From the text: The […] metabolites and enzymes (such as NADPH oxidase, lipoxygenase, and cytochrome P450) act together to mediate the production of ROS and diminish the counteractive oxidative damage. ROS can cause damage to DNA, lipid, proteins, and nucleic acids and the destruction of cell components leading to cell death. Toward this end, we aimed to investigate whether the mode of action of this class of compounds involved the generation of ROS. ROS-producing compounds upon reaction with a reducing agent in the presence of oxygen afford superoxide O^•−2 radical and hydrogen peroxide (H2O2) which could be quantitively estimated. Thus, compounds 5a and 7a (at 50 µM concentration) were incubated with the reducing agent dithiothreitol (DTT) and the generated H2O2 was subsequently assessed by monitoring the oxidation of phenol red in the presence of horseradish peroxidase (HRP) at the absorbance of 610 nm. We first examined the validity of the assay by examining the activity of a known ROS-producing standard drug. In our study, Celecoxib was utilized as a reference pharmacological ROS-generating drug. […] Next, we evaluated the potency of compounds 5a and 7a to produce ROS at a 50 µM concentration.
According to Nasiri et al., the antioxidant activity of compounds (5a, 7a) and Celecoxib was measured by an evaluation of ROS-generation using ELISA analysis. Three different solutions were prepared for the in vitro assessment of ROS-generation: phenol red, sodium hydroxide solution, and DTT. All reagents were provided by Sigma-Aldrich. A stock solution of DTT (20 mM) was prepared by dissolving […] of DTT in 500 µL of Hank’s Balanced Salt Solution (HBSS), and the obtained solution was preserved at −20 °C. The stock solution was further diluted with HBSS to 0.8 mM for each measurement. The HRP-PR solution was prepared by dissolving 1.8 mg of horseradish peroxidase (HRP) and 3 mg of phenol red (PR) in 10 mL of HBSS. […] After incubation, 1N NaOH was applied, and the absorbance at 610 nm was measured using a plate reader spectrometer. […]

O=C1CNC(=S)N1 [unsubstituted-2-thiohydantoin, 2-thiohydantoin]
IC50 toward α-amylase activity (α-amylase): 410.35 µg/mL (≈ 3530 µM) | IC50 toward α-glucosidase activity (α-glucosidase): 356.22 µg/mL (≈ 3070 µM)

CN1C(=O)/C(=C/c2ccc(-c3cc(=O)c4ccccc4o3)cc2)N(C)C1=S [Compound 9]
increase of insulin release as compared to control (INS-1 cells): 40%

O=C1CNC(=S)N1C(=O)c1cc([N+](=O)[O-])cc([N+](=O)[O-])c1 [Compound 3j]
IC50 (α-amylase; read-out: IC50 toward α-amylase enzyme): 8.2 µM | IC50 (α-glucosidase; read-out: IC50 toward α-glucosidase enzyme): 51 µM

Cc1ccc(-c2cc(C(F)(F)F)nn2-c2ccc(S(N)(=O)=O)cc2)cc1 [Celecoxib, reference compound]
viability at 48 h, 4 µg/mL ([1]; 4 µg/mL (log conc. 0.602)): 67.3% | viability at 48 h, 16 µg/mL ([1]; 16 µg/mL (log conc. 1.204)): 61.7% | viability at 48 h, 63 µg/mL ([1]; 63 µg/mL (log conc. 1.799)): 54.2% | viability at 48 h, 250 µg/mL ([1]; 250 µg/mL (log conc. 2.398)): 43% | viability at 48 h, 1000 µg/mL ([1]; 1000 µg/mL (log conc. 3)): 35.4% | IC50 at 48 h ([1]; MTT): 93 µg/mL (≈ 244 µM) | WI-38 cytotoxicity IC50 [2]: 93.054 µg/mL | ROS produced (generated H2O2) [3]: 171.6 pg/mL and 171.6 ± 1.89 pg/mL

Reference: article PMC9785777, “Antidiabetic Potential of Novel 1,3,5-Trisubstituted-2-Thioxoimidazloidin-4-One Analogues: Insights into α-Glucosidase, α-Amylase, and Antioxidant Activities” (Pharmaceuticals, 2022)
